Results published in PubChem BioAssay (NCI).
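Five concentrations, 48 hours, 96-well plates. Here, GI50 denotes the concentration required for 50% inhibition of growth. TGI denotes the concentration required for complete inhibition of growth.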

Experiments:
Assay in all cases: inhibition of tumour cell growth, NCI panel, 48 h; in the data active = GI50 below about 0.43 µM; inactive = the rest
HOP-92 NSCLC = test system: HOP-92 NSCLC
T-47D breast = test system: T-47D breast
SN12C renal = test system: SN12C renal
SF-268 CNS = test system: SF-268 CNS
MALME-3M melanoma = test system: MALME-3M melanoma
KM12 colon = test system: KM12 colon
786-0 renal = test system: 786-0 renal
MDA-MB-231 breast = test system: MDA-MB-231 breast
MCF7 breast = test system: MCF7 breast
HL-60(TB) leukemia = test system: HL-60(TB) leukemia
HOP-62 NSCLC = test system: HOP-62 NSCLC
HCC-2998 colon = test system: HCC-2998 colon
NCI-H522 lung = test system: NCI-H522 lung
M14 melanoma = test system: M14 melanoma
SNB-75 CNS = test system: SNB-75 CNS
BT-549 breast = test system: BT-549 breast
UO-31 renal = test system: UO-31 renal
HCT-116 colon = test system: HCT-116 colon
PC-3 prostate = test system: PC-3 prostate
A549 NSCLC = test system: A549 NSCLC
SK-OV-3 ovarian = test system: SK-OV-3 ovarian
NCI-H460 lung = test system: NCI-H460 lung
SNB-19 CNS = test system: SNB-19 CNS
IGROV1 ovarian = test system: IGROV1 ovarian
SW-620 colon = test system: SW-620 colon
SR leukemia = test system: SR leukemia
HS 578T breast = test system: HS 578T breast
HCT-15 colon = test system: HCT-15 colon
ACHN renal = test system: ACHN renal
DU-145 prostate = test system: DU-145 prostate
U251 CNS = test system: U251 CNS
A498 renal = test system: A498 renal
UACC-62 melanoma = test system: UACC-62 melanoma
TK-10 renal = test system: TK-10 renal
LOX IMVI melanoma = test system: LOX IMVI melanoma
NCI-H226 lung = test system: NCI-H226 lung
CCRF-CEM leukemia = test system: CCRF-CEM leukemia
OVCAR-4 ovarian = test system: OVCAR-4 ovarian
MOLT-4 leukemia = test system: MOLT-4 leukemia
NCI-H23 lung = test system: NCI-H23 lung
HT29 colon = test system: HT29 colon
OVCAR-5 ovarian = test system: OVCAR-5 ovarian
UACC-257 melanoma = test system: UACC-257 melanoma
SK-MEL-28 melanoma = test system: SK-MEL-28 melanoma
OVCAR-8 ovarian = test system: OVCAR-8 ovarian
NCI/ADR-RES ovarian = test system: NCI/ADR-RES ovarian
SK-MEL-5 melanoma = test system: SK-MEL-5 melanoma
SK-MEL-2 melanoma = test system: SK-MEL-2 melanoma
EKVX NSCLC = test system: EKVX NSCLC
CAKI-1 renal = test system: CAKI-1 renal
K-562 leukemia = test system: K-562 leukemia
SF-539 CNS = test system: SF-539 CNS
SF-295 CNS = test system: SF-295 CNS
RPMI-8226 leukemia = test system: RPMI-8226 leukemia
RXF 393 renal = test system: RXF 393 renal
OVCAR-3 ovarian = test system: OVCAR-3 ovarian
MDA-MB-435 = test system: MDA-MB-435
COLO 205 colon = test system: COLO 205 colon

CCOC(=O)c1cc(C(=O)c2ccc(OC)c(OC)c2)n2c1ccc1ccc3cccnc3c12
81.6 µM: TGI (HOP-62 NSCLC)
23 µM: TGI (HT29 colon)
> 100 µM: TGI (HOP-92 NSCLC) | TGI (T-47D breast) | TGI (SN12C renal) | TGI (SF-268 CNS) | TGI (MALME-3M melanoma) | TGI (786-0 renal) | TGI (MDA-MB-231 breast) | TGI (MCF7 breast) | TGI (HL-60(TB) leukemia) | TGI (HCC-2998 colon) | TGI (NCI-H522 lung) | TGI (M14 melanoma) | TGI (SNB-75 CNS) | TGI (BT-549 breast) | TGI (UO-31 renal) | TGI (HCT-116 colon) | TGI (PC-3 prostate) | TGI (A549 NSCLC) | TGI (SK-OV-3 ovarian) | TGI (NCI-H460 lung) | TGI (SNB-19 CNS) | TGI (IGROV1 ovarian) | TGI (SW-620 colon) | TGI (SR leukemia) | TGI (HS 578T breast) | TGI (HCT-15 colon) | TGI (ACHN renal) | TGI (DU-145 prostate) | TGI (A498 renal) | TGI (UACC-62 melanoma) | TGI (TK-10 renal) | TGI (LOX IMVI melanoma) | TGI (NCI-H226 lung) | TGI (CCRF-CEM leukemia) | TGI (OVCAR-4 ovarian) | TGI (MOLT-4 leukemia) | TGI (NCI-H23 lung) | TGI (OVCAR-5 ovarian) | TGI (UACC-257 melanoma) | TGI (SK-MEL-28 melanoma) | TGI (OVCAR-8 ovarian) | TGI (NCI/ADR-RES ovarian) | TGI (EKVX NSCLC)
66.6 µM: TGI (SK-MEL-2 melanoma)
inactive: GI50 (HOP-92 NSCLC) 6.78 µM | GI50 (T-47D breast) 2.37 µM | GI50 (SN12C renal) 5.46 µM | GI50 (SF-268 CNS) 4.62 µM | GI50 (MALME-3M melanoma) 1.24 µM | GI50 (KM12 colon) 1.3 µM | GI50 (786-0 renal) 2.34 µM | GI50 (MDA-MB-231 breast) 2.66 µM | GI50 (MCF7 breast) 2.25 µM | GI50 (HL-60(TB) leukemia) 2.78 µM | GI50 (HOP-62 NSCLC) 3.78 µM | GI50 (HCC-2998 colon) 4.08 µM | GI50 (NCI-H522 lung) 0.611 µM | GI50 (M14 melanoma) 0.648 µM | GI50 (SNB-75 CNS) 2.04 µM | GI50 (BT-549 breast) 1.94 µM | GI50 (UO-31 renal) 0.891 µM | GI50 (HCT-116 colon) 0.619 µM | GI50 (PC-3 prostate) 0.96 µM | GI50 (A549 NSCLC) 5.46 µM | GI50 (SK-OV-3 ovarian) 4.02 µM | GI50 (NCI-H460 lung) 1.58 µM | GI50 (SNB-19 CNS) 5.07 µM | GI50 (IGROV1 ovarian) 2.33 µM | GI50 (SW-620 colon) 0.93 µM | GI50 (SR leukemia) 0.807 µM | GI50 (HS 578T breast) 3.04 µM | GI50 (HCT-15 colon) 1.25 µM | GI50 (ACHN renal) 2.4 µM | GI50 (DU-145 prostate) 3.45 µM | GI50 (U251 CNS) 3.61 µM | GI50 (A498 renal) 2.82 µM | GI50 (UACC-62 melanoma) 0.918 µM | GI50 (TK-10 renal) 7.2 µM | GI50 (LOX IMVI melanoma) 2.6 µM | GI50 (NCI-H226 lung) 6.86 µM | GI50 (CCRF-CEM leukemia) 3.13 µM | GI50 (OVCAR-4 ovarian) 5.17 µM | GI50 (MOLT-4 leukemia) 4.53 µM | GI50 (NCI-H23 lung) 4 µM | GI50 (HT29 colon) 1.42 µM | GI50 (OVCAR-5 ovarian) 5.32 µM | GI50 (UACC-257 melanoma) 25 µM | GI50 (SK-MEL-28 melanoma) 3.7 µM | GI50 (OVCAR-8 ovarian) 3.73 µM | GI50 (NCI/ADR-RES ovarian) 0.948 µM | GI50 (SK-MEL-5 melanoma) 0.836 µM | GI50 (SK-MEL-2 melanoma) 2.67 µM | GI50 (EKVX NSCLC) 4.14 µM
80.7 µM: TGI (KM12 colon)
26.9 µM: TGI (U251 CNS)
37.7 µM: TGI (SK-MEL-5 melanoma)

O=c1[nH]ncc2[nH]c3c(c12)CCc1ccccc1-3
44.3 µM: TGI (IGROV1 ovarian)
69.7 µM: TGI (MOLT-4 leukemia)
61.8 µM: TGI (A498 renal)
81.8 µM: TGI (HOP-92 NSCLC)
98.9 µM: TGI (T-47D breast)
76.1 µM: TGI (SNB-75 CNS)
40.7 µM: TGI (NCI-H226 lung)
57.7 µM: TGI (SK-MEL-2 melanoma)
81.2 µM: TGI (TK-10 renal)
> 100 µM: TGI (SN12C renal) | TGI (SF-268 CNS) | TGI (MALME-3M melanoma) | TGI (CAKI-1 renal) | TGI (KM12 colon) | TGI (786-0 renal) | TGI (MDA-MB-231 breast) | TGI (HOP-62 NSCLC) | TGI (M14 melanoma) | TGI (K-562 leukemia) | TGI (BT-549 breast) | TGI (UO-31 renal) | TGI (HCT-116 colon) | TGI (PC-3 prostate) | TGI (A549 NSCLC) | TGI (SK-OV-3 ovarian) | TGI (SNB-19 CNS) | TGI (SF-295 CNS) | TGI (SW-620 colon) | TGI (SR leukemia) | TGI (HCT-15 colon) | TGI (ACHN renal) | TGI (DU-145 prostate) | TGI (U251 CNS) | TGI (LOX IMVI melanoma) | TGI (CCRF-CEM leukemia) | TGI (OVCAR-4 ovarian) | TGI (NCI-H23 lung) | TGI (HT29 colon) | TGI (OVCAR-5 ovarian) | TGI (UACC-257 melanoma) | TGI (SK-MEL-28 melanoma) | TGI (OVCAR-8 ovarian) | TGI (OVCAR-3 ovarian) | TGI (NCI/ADR-RES ovarian) | TGI (MDA-MB-435)
42.1 µM: TGI (SF-539 CNS)
57 µM: TGI (NCI-H522 lung)
30.2 µM: TGI (EKVX NSCLC)
59.2 µM: TGI (HS 578T breast)
77 µM: TGI (NCI-H460 lung)
69 µM: TGI (HL-60(TB) leukemia)
42 µM: TGI (RXF 393 renal)
30.3 µM: TGI (COLO 205 colon)
70.7 µM: TGI (RPMI-8226 leukemia)
25 µM: TGI (SK-MEL-5 melanoma)
